Test results: US20250179032A1, “HETEROCYCLIC INHIBITORS OF GLUT9 FOR TREATMENT OF DISEASE” (HORIZON THERAPEUTICS IRELAND DAC, priority 2022, published 2025)
Read-outs that look alike come from different tables or passages of the source.

Target: T1, H. sapiens SLC2A9 variant 2 (GLUT9B) (Homo sapiens, UniProt Q9NRM0)
T1 sequence (Q9NRM0 1-511 isoform Q9NRM0-2): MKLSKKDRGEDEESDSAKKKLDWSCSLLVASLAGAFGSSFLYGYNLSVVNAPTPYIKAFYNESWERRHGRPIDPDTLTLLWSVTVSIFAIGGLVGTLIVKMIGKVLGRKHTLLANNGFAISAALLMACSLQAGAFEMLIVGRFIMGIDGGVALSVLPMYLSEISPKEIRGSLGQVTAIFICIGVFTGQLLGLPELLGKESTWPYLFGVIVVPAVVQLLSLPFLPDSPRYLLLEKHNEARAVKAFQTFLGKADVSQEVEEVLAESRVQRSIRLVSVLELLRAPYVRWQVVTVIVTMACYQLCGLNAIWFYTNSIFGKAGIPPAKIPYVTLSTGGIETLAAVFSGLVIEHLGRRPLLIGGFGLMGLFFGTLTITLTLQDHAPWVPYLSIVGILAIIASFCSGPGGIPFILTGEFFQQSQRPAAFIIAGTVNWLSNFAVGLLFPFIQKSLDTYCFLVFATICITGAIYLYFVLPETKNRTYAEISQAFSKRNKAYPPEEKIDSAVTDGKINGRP
Experiment: GLUT9 functional assay: uric acid uptake in HEK293T cells, allantoin formation by MS/MS as proxy of GLUT9B inhibition
Format: cell-based
Conditions: HEK293T cells stably expressing GLUT9B and transiently A. oryzae uricase, uric acid 0.3 mM, 37° C.
Procedure: Uric acid stocks (9 mM, Millipore-Sigma, U0881) were generated in 125 mM choline chloride (Millipore-Sigma, C7017) and the concentration was determined at 293 nm using a molar extinction coefficient of 9600 M- ^1 cm- ^1) after collecting the absorbance spectra from 220-350 nm. Allantoin stocks (12 mM Toronto Research Chemicals, A540500) were generated in LCMS grade water (Thermo Scientific, 51140). The concentration of allantoin was determined by qNMR (Michigan State University). HEK293T cells were purchased from ATCC (HEK 293T/17 SF). Hanks buffered saline salts (HBSS) was purchased from Millipore-Sigma (H6648-1L).
SLC2A9 variant 2 was assayed in sodium gluconate buffer was composed of 125 mM sodium gluconate (TCI Chemicals, G0041-500G), 4.8 mM potassium gluconate (TCI Chemicals, G0040-500G), 1.2 mM calcium gluconate (TCI Chemicals, G0037-500G), 1.2 mM potassium phosphate (pH 7.4, Millipore-Sigma, 17835), 1.2 mM MgSO4, Millipore-Sigma, M2773-500G), 25 mM HEPES pH 7.3, (Millipore-Sigma, 54457). The final pH of the buffer was 7.4. Urate 1 was assayed in the same buffer save the pH was made to be 5.5 using 25 mM MES (pH 5.5) buffer vs 25 mM HEPES (pH 7.3) buffer.
Human untagged clone for (untagged)-human solute carrier family 2 member 9 (SLC2A9), transcript variant (SLC2A9/NM_001001290, FIG. 1 and FIG. 2; SEQ ID NOS: 3 and 4) was purchased from Origene (Cat #SC319239). SLC2A9 variant 2 (GLUT9B) gene was amplified by PCR using the following primer to allow for the introduction of EcoR1 and Not1 sites using the primers below.
HEK293T clonal stable cell lines containing the SLC2A9 variant 2 construct in the bicistronic pIRESpuro vector were generated using Viafect™ (Promega E4981) as per the manufactures instructions and puromycin selection (5 μg×mL^−1).
Uric acid uptake was measured in HEK293T cells stably expressing H. sapiens SLC2A9 variant 2 (GLUT9B) and transiently expressing A. oryzae uricase. Thus, decreased allantoin formation was used as a proxy of GLUT9B inhibition. Briefly, clonal cells were plated (53,000 cells/cm^2) in DMEM with 10% FBS. Twenty-four hours later, A. oryzae uricase was transfected, and assay conducted 3 days later across a 12-point curve in buffer (in mM: 125 sodium gluconate, 4.8 potassium gluconate, 1.2 calcium gluconate, 1.2 potassium phosphate, 1.2 magnesium sulfate4, 25 HEPES; pH 7.4) with uric acid at the GLUT9B Km (0.3 mM) for 15 min or for 60 min, at 37° C. Following wash (Hanks, 37° C.), plates were sealed, incubated (5 min, RT) and cells freeze-thawed prior to lysing in water and shaking (30 min RT). Lysates were filtered through PVDF and subjected to MSMS using a 10 mM ammonium acetate-based mobile phase on a porous graphitic carbon column. Allantoin was detected in positive ion mode. Desired analyte concentrations were quantitated by integrating the area under the curve followed by a log-logistic regression model and data compared to a standard curve prepared in a matching HEK293T biological matrix.
Mass spectrometry measurement of allantoin was completed using an Agilent RapidFire 300 coupled to a Sciex API 4000 mass spectrometer. The stationary phase was an Agilent cartridge D (hypercarb). Mobile phase A was 10 mM ammonium acetate. Mobile phase B was 5 mM ammonium acetate, 25% acetonitrile, 25% acetone. Allantoin was detected in positive ion mode with the following compound ID settings: Q1 159, Q3 115.8, DP 57, CE 12.5 Dwell 100 ms. The source settings were CAD 10, CUR 20, GS1 50, GS250 IS/NC: 5000, TEM 650, EP 10, CXP 10 where Q1 and Q3 resolution were set to low.
Data was quantitated using Area under the curve integration was performed with the RapidFire™ Integrator (Agilent Technologies) for the desired analytes. Quantitation was completed using in a using a log-logistic regression model using allantoin in matching HEK293T biological matrix.

[1] = 15 minute assay, read-out: 15 min IC50
[2] = 60 minute assay, read-out: 60 min IC50

In the case of `COCCOc1ccc(-c2ncc(CCC(F)(F)F)nc2N2CCC(C(=O)NS(C)(=O)=O)CC2)cc1` [Compound 70, 1-(3-(4-(2-methoxyethoxy)phenyl)-6-(3,3,3-trifluoropropyl)pyrazin-2-yl)-N-(methylsulfonyl)piperidine-4-carboxamide], the IC50 [1] is reported as 500 to 2000 nM.
Work on `COCCCc1cnc(-c2ccc3occ(C)c3c2)c(N2CCC(C(=O)O)CC2)n1` [Compound 242, 1-(6-(3-methoxypropyl)-3-(3-methylbenzofuran-5-yl)pyrazin-2-yl)piperidine-4-carboxylic acid] yielded an IC50 [2] of 500 to 2000 nM.
In the case of `COCCCc1cnc(-c2cnc3c(cnn3C)c2)c(N2CCC(C(=O)O)CC2)n1` [Compound 217, 1-(6-(3-methoxypropyl)-3-(1-methyl-1H-pyrazolo[3,4-b]pyridin-5-yl)pyrazin-2-yl)piperidine-4-carboxylic acid], the IC50 [2] is reported as greater than 2000 nM.
`O=C(O)C1CCN(c2nc(CCCC(F)(F)F)cnc2-c2ccc3c(c2)OCO3)CC1` [Compound 108, 1-(3-(benzo[d][1,3]dioxol-5-yl)-6-(4,4,4-Trifluorobutyl)Pyrazin-2-yl)piperidine-4-carboxylic acid] was tested, and the IC50 [1] was less than 500 nM and the IC50 [2] was less than 500 nM.
Work on `COCCCc1cnc(-c2cc(C)c3occc3c2)c(N2CCC(C(=O)O)CC2)n1` [Compound 239, 1-(6-(3-methoxypropyl)-3-(7-methylbenzofuran-5-yl)pyrazin-2-yl)piperidine-4-carboxylic acid] yielded an IC50 [2] of less than 500 nM.
Work on `CC(F)(F)CCc1cnc(-c2ccc3occc3c2)c(N2CCC(C(=O)O)CC2)n1` [Compound 134, 1-(3-(benzofuran-5-yl)-6-(3,3-difluorobutyl)pyrazin-2-yl)piperidine-4-carboxylic acid] yielded an IC50 [1] of less than 500 nM.
`COCCCc1cnc(-c2ccc3occc3c2)c(NC23CC(C(=O)O)(C2)C3)n1` [Compound 182, 3-((3-(benzofuran-5-yl)-6-(3-methoxypropyl)pyrazin-2-yl)amino)bicyclo[1.1.1]pentane-1-carboxylic acid] was tested, and the IC50 [2] was greater than 2000 nM.
With `COCCCc1cnc(-c2ccc3c(c2)OCO3)c(N2CCC(O)(C(=O)O)CC2)n1` [Compound 171, 1-(3-(benzo[d][1,3]dioxol-5-yl)-6-(3-methoxypropyl)pyrazin-2-yl)-4-hydroxypiperidine-4-carboxylic acid] the IC50 [1] was greater than 2000 nM.
`O=C(O)C1CCN(c2nc(CCC(F)(F)F)cnc2-c2ccc3c(c2)OCO3)CC1` [Compound 120, 1-(3-(benzo[d][1,3]dioxol-5-yl)-6-(3,3,3-trifluoropropyl)pyrazin-2-yl)piperidine-4-carboxylic acid] gave an IC50 [1] of less than 500 nM.
Work on `COCCCc1cnc(-c2ccc3c(c2)COC3=O)c(N2CCC(C(=O)O)CC2)c1` [Compound 232, 1-(5-(3-methoxypropyl)-2-(1-oxo-1,3-dihydroisobenzofuran-5-yl)pyridin-3-yl)piperidine-4-carboxylic acid] yielded an IC50 [2] of less than 500 nM.
In the case of `CCCCc1cnc(-c2ccc(OC)cc2)c(-c2csc(C(=O)O)n2)c1` [Compound 20, 4-(5-butyl-2-(4-methoxyphenyl)pyridin-3-yl)thiazole-2-carboxylic acid], the IC50 [1] is reported as greater than 2000 nM.
Work on `COCc1cnc(-c2cc(F)c3c(ccn3C)c2)c(N2CCC(C(=O)O)CC2)n1` [Compound 51, 1-(3-(7-fluoro-1-methyl-1H-indol-5-yl)-6-(methoxymethyl)pyrazin-2-yl)piperidine-4-carboxylic acid] yielded an IC50 [1] greater than 2000 nM.
Molecule `COc1ccc(-c2ncc(COCC(F)(F)F)nc2N2CCC(C(=O)O)CC2)cc1` [Compound 32, 1-(3-(4-methoxyphenyl)-6-((2,2,2-trifluoroethoxy)methyl)pyrazin-2-yl)piperidine-4-carboxylic acid] has an IC50 [1] greater than 2000 nM.
Work on `COCCOc1ccc(-c2ncc(CCC(F)(F)F)nc2N2CCC(c3nn[nH]n3)CC2)cc1` [Compound 71, 3-(4-(2H-tetrazol-5-yl)piperidin-1-yl)-2-(4-(2-methoxyethoxy)phenyl)-5-(3,3,3-trifluoropropyl)pyrazine] yielded an IC50 [1] of less than 500 nM.
In the case of `N#CC1(C(=O)O)CCN(c2nc(CCC(F)(F)F)cnc2-c2cc(F)c3occc3c2)CC1` [Compound 93, 4-cyano-1-(3-(7-fluorobenzofuran-5-yl)-6-(3,3,3-trifluoropropyl)pyrazin-2-yl)piperidine-4-carboxylic acid], the IC50 [1] is reported as 500 to 2000 nM.
Molecule `COCCCc1cnc(-c2ccnn2CCC(C)C)c(N2CCC(C(=O)O)CC2)n1` [Compound 202, 1-(3-(1-isopentyl-1H-pyrazol-5-yl)-6-(3-methoxypropyl)pyrazin-2-yl)piperidine-4-carboxylic acid] has an IC50 [2] greater than 2000 nM.
In the case of `O=C(O)C1CCN(c2nc(CCC(F)(F)F)cnc2-c2ccc(OC(F)(F)F)cc2)CC1` [Compound 161, 1-(3-(4-(trifluoromethoxy)phenyl)-6-(3,3,3-trifluoropropyl)pyrazin-2-yl)piperidine-4-carboxylic acid], the IC50 [1] is reported as 500 to 2000 nM.
`O=C(O)C1CCN(c2nc(CCCC(F)(F)F)cnc2-c2ccc3c(c2)CCO3)CC1` [Compound 107, 1-(3-(2,3-dihydrobenzofuran-5-yl)-6-(4,4,4-trifluorobutyl)pyrazin-2-yl)piperidine-4-carboxylic acid] showed an IC50 [1] of less than 500 nM.
With `COCCCc1cnc(-c2ccnc3ccccc23)c(N2CCC(C(=O)O)CC2)n1` [Compound 200, 1-(6-(3-methoxypropyl)-3-(quinolin-4-yl)pyrazin-2-yl)piperidine-4-carboxylic acid] the IC50 [2] was greater than 2000 nM.
Molecule `O=C(O)C1CCN(c2nc(CCC(F)(F)F)cnc2-c2ccc3oc(F)cc3c2)CC1` [Compound 60, 1-(3-(2-fluorobenzofuran-5-yl)-6-(3,3,3-trifluoropropyl)pyrazin-2-yl)piperidine-4-carboxylic acid] has an IC50 [1] of 500 to 2000 nM.
`COCCCc1cnc(-c2cc(F)c3occc3c2)c(N2CC[C@@H](C(=O)O)C[C@@H]2C)n1` (single isomer, unassigned) [Compound 183] showed an IC50 [2] of less than 500 nM.
For `O=C(O)C1CCN(c2nc(CCCOC(F)(F)F)cnc2-c2cc(F)c3occc3c2)CC1` [Compound 96, 1-(3-(7-fluorobenzofuran-5-yl)-6-(3-(trifluoromethoxy)propyl)pyrazin-2-yl)piperidine-4-carboxylic acid], the IC50 [2] was less than 500 nM.
In the case of `O=C(O)C1CCN(c2nc(CC(C(F)(F)F)C(F)(F)F)cnc2-c2ccc3c(c2)OCO3)CC1` [Compound 127, 1-(3-(benzo[d][1,3]dioxol-5-yl)-6-(3,3,3-trifluoro-2-(trifluoromethyl)propyl)pyrazin-2-yl)piperidine-4-carboxylic acid], the IC50 [1] is reported as 500 to 2000 nM.
